Patent publication US20100197643A1, “PHYTOCHEMICAL-RICH OILS AND METHODS RELATED THERETO” (priority 2007, published 2010)

Key:
[1] = Phenolic storage stability of açai oil, 10 weeks at 20, 30, 40° C.; assay type: physicochemical; details: for change in concentration after storage: 10 weeks at 20 or 30 ° C.
Caco-2 cell monolayers = assay: Transepithelial transport model, apical to basolateral; assay type: in vitro ADME; details: 2 hours, 37° C., not affected by initial polyphenolic concentration
caspase-3 = assay: Caspase-3 activation in HL-60 cells; assay type: cell-based, human; details: optimal time (2, 3, 4 hours tested), highest concentration

In the case of `COc1cc(C(=O)O)cc(OC)c1O` [syringic acid], the “change in concentration after storage” value [1] was “no significant changes” and the “transport efficiency (percentage of initial apical concentration detected on basolateral side)” value (Caco-2 cell monolayers; from açai pulp extracts) was “approximately 0.6%”.

In the case of `CC[C@@]1(O)C(=O)OCc2c1cc1n(c2=O)Cc2cc3ccccc3nc2-1` [camptotechin], the “caspase-3 activation (maximal)” value (caspase-3) was 7 fold.

With `O=c1c(O)c(-c2ccc(O)c(O)c2)oc2cc(O)cc(O)c12` [Quercetin, quercetin] the “caspase-3 activation (maximal)” value (caspase-3) was “double”.

With `COc1cc(C(=O)O)ccc1O` [vanillic acid] the “change in concentration after storage” value [1] was “no significant changes”.

With `Oc1cc(O)c2c(c1)O[C@H](c1ccc(O)c(O)c1)[C@@H](O)C2` [(+)-catechin] the “change in concentration after storage” value [1] was “no significant changes” and the “transport efficiency (percentage of initial apical concentration detected on basolateral side)” value (Caco-2 cell monolayers; from açai oil extracts) was “approximately 0.1%”.

With `O=C(O)c1ccc(O)cc1` [p-hydroxybenzoic acid] the “change in concentration after storage” value [1] was “no significant changes” and the “transport efficiency (percentage of initial apical concentration detected on basolateral side)” value (Caco-2 cell monolayers; from açai pulp extracts) was “approximately 2.0%”.

With `O=C(O)c1ccc(O)c(O)c1` [protocatechuic acid, 3,4-dihydroxybenzoic acid] the “change in concentration after storage” value [1] was “no significant changes”.

For `COc1cc(/C=C/C(=O)O)ccc1O` [ferulic acid], the “decrease in concentration after storage” value ([1]; 10 weeks at 20° C.) was 9.3%, the “decrease in concentration after storage” value ([1]; 10 weeks at 30° C.) was 20.3% and the “decrease / change in concentration after storage” value ([1]; 10 weeks at 40° C.) was 33.1%. The “transport efficiency (percentage of initial apical concentration detected on basolateral side)” value (Caco-2 cell monolayers; from açai oil extracts) was “approximately 0.1%”.
